Ends that are not written are not given here.
Experiments:
[1] = target: T1, human Cav3.2 calcium channel (Homo sapiens, UniProt O95180); assay: Whole-cell patch clamp on HEK293 cells stably expressing the human Cav3.2 calcium channel; format: cell-based; conditions: CaV3.2 current, HEK293, FIG. 8
T1 construct: expressed in transfected cells
Experimental: Starting from this stock concentration, the peptides were diluted in a solution corresponding to the extracellular solution used for the patch clamp analysis. This solution has the following composition (in mM): NaCl 135, TEACl 20, HEPES 10, CaCl2 2, MgCl21 (pH 7.3 with TEAOH).
HEK293 cells (ATCC) stably expressing the complementary DNA sequence of the human Cav3.2 calcium channel were used. At each passage of the cell line, cells were seeded at low density on culture dishes for “patch clamp” analysis (molecular electrophysiology).
The electrophysiological recordings were made by the “patch clamp” technique in the “whole cell” configuration using an Axopatch200B amplifier controlled by a Digidata interface and the pClamp10 software (Molecular Devices). The extracellular recording solution containing 2 mM calcium is described above.
The intrapipette solution used for the recordings has the following composition: CsCl 130 mM, HEPES 10 mM, EGTA 10 mM, CaCl2 2 mM, MgCl2 1 mM, MgATP 4 mM, TrisGTP 0.3 mM (pH 7.3 with NaOH). The results are analyzed using [sequence] (registered trademark), EXCEL (registered trademark) and [sequence] (registered trademark) software. […]
These “dose-effect” curves were analyzed with [sequence] […]

human Cav3.2 = target: T2, human Cav3.2 (Homo sapiens, UniProt O95180); assay: Double microelectrode imposed-voltage recording of CaV3.2 current in Xenopus oocytes; format: cell-based; conditions: 5 mM barium, depolarization at -30 mV from -100 mV, after 30 seconds (FIG. 2)
T2 construct: expressed in transfected cells; host or cells: Xenopus laevis oocytes (cDNA injection)
Experimental: The current is recorded in a solution containing 5 mM barium as charge carrier and it is produced by depolarization at −30 mV starting from a rest potential of −100 mV.
The cDNA coding for human Cav3.2 is injected into oocytes of Xenopus (Xenopus laevis) as described in Altier, C., Dubel, S. J., Barrére, C., Jarvis, S. E., Stotz, S. C., Spaetgens, R. L., Scott, J. D., Cornet, V., De Waard, M., Zamponi, G. W., Nargeot, J. and Bourinet, E. (2002) “Trafficking of L-type calcium channels mediated by postsynaptic scaffolding protein AKAP79.” J. Biol. Chem., 277, 33598-33603 (Ref 5) and in Dubel, S. J., Altier, C., Chaumont, S., Lory, P., Bourinet, E. and Nargeot, J. (2004) “Plasma Membrane Expression of T-type Calcium Channel {alpha}1 Subunits Is Modulated by High Voltage-activated Auxiliary Subunits.” J Biol Chem, 279, 29263-29269 (Ref 6). The currents are recorded by the technique of imposed voltage by double microelectrode using a [sequence]500 amplifier (registered trademark) (MOLECULAR DEVICES (registered trademark)) controlled by the PCLAMP9 software (registered trademark). […] The fractions (10 μl) are applied manually, directly on the oocyte recorded by means of a pipette.

C57BL/6J mice [2] = assay: Tail immersion test in a water bath at 46° C. (thermal pain); format: in vivo; conditions: intrathecal injection, 10 and 100 nM, versus control group receiving physiological solution
Experimental: Mice are used for observing the analgesic effect of the peptide of the invention with respect to pain induced by thermal stimuli.
(§1) The mice are C57BL/6J wild-type mice and C57BL/6J CaV3.2−/− mice. The total number of mice is 10 wild-type and 10 CaV3.2−/−.
Two groups of mice (C57BL/6J) are used, one group injected intrathecally with a physiological solution comprising the peptide of the invention at a concentration of 10 and 100 nM and a second group (control group) receiving only intrathecal injection of physiological solution alone. The mice are then submitted to the test of immersion of the tail in a water bath at 46° C. The purpose of this experiment is to determine the time after which the mice react to the painful heat, thus showing the threshold of appearance of the painful signal connected with perception of heat. The same experiment is conducted in parallel on two other groups of C57BL/6J mice lacking the gene coding for the T-type calcium channel encoded by the CaV3.2 subunit. The purpose of this experiment is to show the selectivity of the peptide of the invention.

C57BL/6J mice [3] = assay: Mechanical stimulation test with von Frey bristles; format: in vivo; conditions: intrathecal injection, 10 and 100 nM, versus control group receiving physiological solution
Experimental: Mice are used for observing the analgesic effect of the peptide of the invention with respect to mechanical stimuli.
as §1
Two groups of mice (C57BL/6J) are used, one group injected intrathecally with a physiological solution comprising the peptide of the invention at a concentration of 10 and 100 nM and a second group (control group) only receiving intrathecal injection of the physiological solution alone. The mice are then submitted to the mechanical stimulation test with von Frey bristles. The purpose of this experiment is to determine the threshold of reaction to a mechanical stimulus of increasing intensity applied on the arch of the foot. The animals' reaction threshold is correlated with the appearance of the painful signal connected with the perception of mechanical pressure. The same experiment is conducted in parallel on two other groups of C57BL/6J mice lacking the gene coding for the T-type calcium channel encoded by the CaV3.2 subunit. The purpose of this experiment is to show the selectivity of the peptide of the invention.

T1 sequence (O95180 whole entry): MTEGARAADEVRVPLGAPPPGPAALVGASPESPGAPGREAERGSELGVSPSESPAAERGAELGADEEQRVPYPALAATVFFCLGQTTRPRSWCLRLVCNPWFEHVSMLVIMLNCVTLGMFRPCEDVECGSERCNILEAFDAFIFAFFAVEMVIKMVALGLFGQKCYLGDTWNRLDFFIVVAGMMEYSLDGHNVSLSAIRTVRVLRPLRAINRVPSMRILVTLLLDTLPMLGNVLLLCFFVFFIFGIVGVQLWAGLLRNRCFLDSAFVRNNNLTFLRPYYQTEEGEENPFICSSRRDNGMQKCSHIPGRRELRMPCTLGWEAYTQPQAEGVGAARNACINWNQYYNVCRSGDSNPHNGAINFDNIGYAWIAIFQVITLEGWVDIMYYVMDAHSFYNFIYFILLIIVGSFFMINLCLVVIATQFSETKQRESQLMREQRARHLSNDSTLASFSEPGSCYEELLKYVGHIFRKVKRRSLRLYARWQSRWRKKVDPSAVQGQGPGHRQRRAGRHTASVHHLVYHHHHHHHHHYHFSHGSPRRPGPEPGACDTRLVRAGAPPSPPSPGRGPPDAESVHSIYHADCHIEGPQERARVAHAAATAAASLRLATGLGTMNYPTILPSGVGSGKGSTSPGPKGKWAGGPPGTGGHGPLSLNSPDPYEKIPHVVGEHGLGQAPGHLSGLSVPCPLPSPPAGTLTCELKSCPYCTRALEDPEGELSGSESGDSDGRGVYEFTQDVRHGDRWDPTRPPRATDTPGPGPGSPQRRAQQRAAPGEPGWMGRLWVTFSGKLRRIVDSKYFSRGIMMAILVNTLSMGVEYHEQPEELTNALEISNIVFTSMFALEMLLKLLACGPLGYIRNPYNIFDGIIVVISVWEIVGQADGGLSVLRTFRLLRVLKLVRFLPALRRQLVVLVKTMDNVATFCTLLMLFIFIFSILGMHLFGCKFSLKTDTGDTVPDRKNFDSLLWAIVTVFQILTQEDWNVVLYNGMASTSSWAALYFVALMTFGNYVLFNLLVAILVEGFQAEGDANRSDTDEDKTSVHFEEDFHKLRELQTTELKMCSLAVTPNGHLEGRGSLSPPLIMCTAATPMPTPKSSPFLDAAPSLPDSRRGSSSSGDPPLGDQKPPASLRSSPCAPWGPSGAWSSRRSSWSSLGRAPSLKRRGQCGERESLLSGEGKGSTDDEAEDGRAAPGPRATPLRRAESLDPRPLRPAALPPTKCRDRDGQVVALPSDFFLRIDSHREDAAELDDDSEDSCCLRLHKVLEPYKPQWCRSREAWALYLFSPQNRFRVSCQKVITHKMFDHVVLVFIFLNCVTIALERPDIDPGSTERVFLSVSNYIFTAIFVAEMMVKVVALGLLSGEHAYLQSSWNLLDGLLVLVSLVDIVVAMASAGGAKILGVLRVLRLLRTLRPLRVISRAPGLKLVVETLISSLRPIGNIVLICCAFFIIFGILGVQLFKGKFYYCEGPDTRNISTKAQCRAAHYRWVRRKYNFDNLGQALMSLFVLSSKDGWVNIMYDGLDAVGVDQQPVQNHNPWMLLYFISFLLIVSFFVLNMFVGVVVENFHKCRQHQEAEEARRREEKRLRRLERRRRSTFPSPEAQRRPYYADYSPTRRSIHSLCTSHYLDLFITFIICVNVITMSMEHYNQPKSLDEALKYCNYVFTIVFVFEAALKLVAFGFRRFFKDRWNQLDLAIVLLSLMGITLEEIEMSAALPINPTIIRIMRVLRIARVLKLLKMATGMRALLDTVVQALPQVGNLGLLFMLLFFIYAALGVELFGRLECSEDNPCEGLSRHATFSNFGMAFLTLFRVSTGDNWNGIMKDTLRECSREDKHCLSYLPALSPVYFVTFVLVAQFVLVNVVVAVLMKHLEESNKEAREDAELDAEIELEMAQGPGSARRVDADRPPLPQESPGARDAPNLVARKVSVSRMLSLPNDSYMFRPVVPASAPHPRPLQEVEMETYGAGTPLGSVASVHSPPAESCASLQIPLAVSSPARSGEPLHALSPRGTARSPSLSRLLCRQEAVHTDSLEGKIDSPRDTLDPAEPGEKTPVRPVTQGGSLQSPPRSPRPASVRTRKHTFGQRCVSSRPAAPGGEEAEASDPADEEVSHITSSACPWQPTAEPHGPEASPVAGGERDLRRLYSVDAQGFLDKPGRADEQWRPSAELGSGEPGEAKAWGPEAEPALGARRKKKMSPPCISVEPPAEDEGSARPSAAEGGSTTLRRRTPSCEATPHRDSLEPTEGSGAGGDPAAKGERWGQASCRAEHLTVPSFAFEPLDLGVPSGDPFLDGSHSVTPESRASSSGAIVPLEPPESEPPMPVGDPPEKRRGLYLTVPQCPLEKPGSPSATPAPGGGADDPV
T2 sequence (O95180 whole entry): as above

| Compound | Hill number (slope of dose-effect curve) [1] | current of the Cav3.2 channel after application of the toxin (human Cav3.2) | time to react to heat (C57BL/6J mice [2]) | threshold of perception of mechanical pressure (C57BL/6J mice [3]) |
| --- | --- | --- | --- | --- |
| CC[C@H](C)[C@H](NC(=O)[C@H](CCCCN)NC(=O)[C@@H]1CSSC[C@@H]2NC(=O)[C@@H]3CCCN3C(=O)[C@H](CCCNC(=N)N)NC(=O)[C@H](CCC(=O)O)NC(=O)[C@H](CO)NC(=O)[C@H](CC(=O)O)NC(=O)[C@@H]3CSSC[C@H](NC(=O)[C@H](C(C)C)NC(=O)[C@H](CC(C)C)NC(=O)CNC(=O)[C@H](CCC(=O)O)NC(=O)[C@H](CSSC[C@H](NC(=O)[C@@H](N)Cc4ccc(O)cc4)C(=O)N[C@@H](CCC(N)=O)C(=O)N[C@@H](CCCCN)C(=O)N[C@@H](Cc4ccccc4)C(=O)N[C@@H](CC(C)C)C(=O)N[C@@H](Cc4c[nH]c5ccccc45)C(=O)N[C@@H]([C@@H](C)O)C(=O)N3)NC2=O)C(=O)N[C@@H](CCCNC(=N)N)C(=O)N[C@@H](CC(C)C)C(=O)N[C@@H](Cc2c[nH]c3ccccc23)C(=O)N1)C(=O)N[C@@H](CC(N)=O)C(=O)O [natural toxin] | 0.87 | strongly inhibited | – | – |
| CC[C@H](C)[C@H](NC(=O)[C@H](CCCCN)NC(=O)[C@@H]1CSSC[C@@H]2NC(=O)[C@@H]3CCCN3C(=O)[C@H](CCCNC(=N)N)NC(=O)[C@H](CCC(=O)O)NC(=O)[C@H](CO)NC(=O)[C@H](CC(=O)O)NC(=O)[C@@H]3CSSC[C@H](NC(=O)[C@H](C(C)C)NC(=O)[C@H](CC(C)C)NC(=O)CNC(=O)[C@H](CCC(=O)O)NC(=O)[C@H](CSSC[C@H](NC(=O)[C@@H](N)Cc4ccc(O)cc4)C(=O)N[C@@H](CCC(N)=O)C(=O)N[C@@H](CCCCN)C(=O)N[C@@H](Cc4ccccc4)C(=O)N[C@@H](CC(C)C)C(=O)N[C@@H](Cc4c[nH]c5ccccc45)C(=O)N[C@@H]([C@@H](C)O)C(=O)N3)NC2=O)C(=O)N[C@@H](CCCNC(=N)N)C(=O)N[C@@H](CC(C)C)C(=O)N[C@@H](Cc2c[nH]c3ccccc23)C(=O)N1)C(=O)N[C@@H](CC(N)=O)C(=O)O [synthetic peptide] | 0.89 | – | – | – |
| YCQKFLWTCDSERPCCEGLVCRLWCKIN (disulfide (positions not given here); not fully specified (bridges); also: 3 disulfide bridges between the 6 cysteines, pairing not given here) [peptide of sequence SEQ ID NO 1] | – | – | significantly longer | significantly higher |

Reference: patent US8664179B2, “Identification of novel antagonist toxins of T-type calcium channel for analgesic purposes” (Centre National de la Recherche Scientifique (CNRS), priority 2009, dated 2014)
